In patent US12297196B2, “Condensed bicyclic heterocyclic derivatives as pest control agents” (Bayer Aktiengesellschaft, priority 2019, dated 2025):

Legend:
[1] = system: fall armyworm (Spodoptera frugiperda); test: Spodoptera frugiperda spray test; format: in vivo; conditions: foliar, 168 h, after 7 days, corn leaf disks, caterpillars, read-out: efficacy in %
Protocol: Spodoptera Fruaiperda—Spray Test
(§1) • Solvent: 78.0 parts by weight of acetone • 1.5 parts by weight of dimethylformamide • Emulsifier: alkylaryl polyglycol ether
(§2) To produce a suitable active compound formulation, 1 part by weight of active compound is dissolved using the stated parts by weight of solvent and made up with water containing an emulsifier concentration of 1000 ppm until the desired concentration is attained. To produce further test concentrations, the formulation is diluted with emulsifier-containing water.
Leaf disks of corn (Zea mays) are sprayed with an active compound formulation of the desired concentration and, after drying, populated with caterpillars of the fall armyworm (Spodoptera frugiperda).
After 7 days, the efficacy in % is determined. 100% means that all the caterpillars have been killed; 0% means that no caterpillar has been killed.

[2] = system: green peach aphids (Myzus persicae); test: Myzus persicae oral test; format: in vivo; conditions: 120 h, after 5 days, read-out: efficacy in %
Protocol: Myzus Persicae—Oral Test • Solvent: 100 parts by weight of acetone To produce a suitable active compound formulation, 1 part by weight of active compound is dissolved using the specified parts by weight of solvent and made up with water until the desired concentration is attained. 50 μl of the active compound preparation are transferred into microtitre plates and made up to a final volume of 200 μl with 150 μl of IPL41 insect medium (33%+15% sugar). Subsequently, the plates are sealed with parafilm, which a mixed population of green peach aphids (Myzus persicae) within a second microtitre plate is able to puncture and imbibe the solution through. After 5 days, the efficacy in % is determined. 100% means that all the aphids have been killed; 0% means that no aphids have been killed.

[3] = system: green peach aphid (Myzus persicae); test: Myzus persicae spray test; format: in vivo; conditions: foliar, 120 h, after 5 days, Chinese cabbage leaf disks, read-out: efficacy in %
Protocol: Myzus Persicae—Spray Test
(§3) • Solvent: 78 parts by weight of acetone • 1.5 parts by weight of dimethylformamide • Emulsifier: alkylaryl polyglycol ether
as §2
Disks of Chinese cabbage leaves (Brassica pekinensis) infested by all stages of the green peach aphid (Myzus persicae) are sprayed with an active compound formulation of the desired concentration.
After 5 days, the efficacy in % is determined. 100% means that all the aphids have been killed; 0% means that no aphids have been killed.

Diabrotica balteata = Diabrotica balteata spray test; format: in vivo; conditions: topical, 168 h, 100 g/ha (=32 μg/cavity), after 7 days, sprayed germinated wheat grains, beetle larvae, read-out: efficacy in %
Protocol: Diabrotica balteata—Spray Test
as §3, §2
Pre-swollen wheat grains (Triticum aestivum) are incubated in a multiwell plate filled with agar and a little water for one day (5 seed grains per cavity). The germinated wheat grains are sprayed with an active compound formulation of the desired concentration. Subsequently, each cavity is infected with 10−20 beetle larvae of Diabrotica balteata.
After 7 days, the efficacy in % is determined. 100% means that all wheat plants have grown as in the untreated, uninfected control; 0% means that no wheat plant has grown.

[4] = system: mustard beetle (Phaedon cochleariae); test: Comparative experiment: Phaedon cochleariae spray test (PHAECO); format: in vivo; conditions: 168 h, 7 dat, read-out: % efficacy; for Emax at 4 g/ha: 4 g of ai/ha; for Emax at 20 g/ha: 20 g of ai/ha
Protocol: Phaedon Cochleariae—Spray Test (PHAECO)
as §1, §2
Disks of Chinese cabbage leaves (Brassica pekinensis) are sprayed with an active compound formulation of the desired concentration and, after drying, populated with larvae of the mustard beetle (Phaedon cochleariae).
After the desired period of time, the efficacy in % is determined. 100% means that all the beetle larvae have been killed; 0% means that no beetle larvae have been killed.

[5] = system: armyworm (Spodoptera frugiperda); test: Comparative experiment: Spodoptera frugiperda spray test (SPODFR); format: in vivo; conditions: 168 h, 7 dat, read-out: % efficacy; for Emax at 0.8 g/ha: 0.8 g of ai/ha; for Emax at 4 g/ha: 4 g of ai/ha; for Emax at 20 g/ha: 20 g of ai/ha
Protocol: Spodoptera Fruaiperda—Spray Test (SPODFR)
as §1, §2
Leaf disks of corn (Zea mays) are sprayed with an active compound formulation of the desired concentration and, after drying, populated with caterpillars of the armyworm (Spodoptera frugiperda).
After the desired period of time, the efficacy in % is determined. 100% means that all the caterpillars have been killed; 0% means that no caterpillar has been killed.

[6] = system: greenhouse red spider mite (Tetranychus urticae); test: Tetranychus urticae spray test, OP-resistant; format: in vivo; conditions: 100 g/ha, after 6 days, bean leaf disks
Protocol: Tetranychus Urticae—Spray Test, OP-Resistant
as §1, §2
Disks of bean leaves (Phaseolus vulgaris) infested with all stages of the greenhouse red spider mite (Tetranychus urticae) are sprayed with an active compound formulation of the desired concentration.
After 6 days, the efficacy in % is determined. 100% means that all the spider mites have been killed; 0% means that no spider mites have been killed.

[7] = log P by HPLC on reversed-phase column (C18), neutral range; format: physicochemical; conditions: ammonium carbonate in water / acetonitrile
Protocol: The log P values were determined according to EEC Directive 79/831 Annex V.A8 by HPLC (high-performance liquid chromatography) on a reversed-phase column (C18) using the following methods: ^[b] The log P value is determined by LC-UV measurement in the neutral range using 79 mg/l ammonium carbonate in water and acetonitrile as mobile phases (linear gradient from 10% acetonitrile to 95% acetonitrile). Calibration was carried out using a homologous series of straight-chain alkan-2-ones (having 3 to 16 carbon atoms) with known log P values. The values between successive alkanones are determined by linear regression.

[8] = system: green peach aphid (Myzus persicae); test: Comparative experiment: Myzus persicae spray test (MYZUPE); format: in vivo; conditions: 120 h, 5 dat, read-out: % efficacy; for Emax at 4 g/ha: 4 g of ai/ha; for Emax at 20 g/ha: 20 g of ai/ha; for Emax at 100 g/ha: 100 g of ai/ha
Protocol: Myzus Persicae—Spray Test (MYZUPE)
as §1, §2
Disks of Chinese cabbage leaves (Brassica pekinensis) infested by all stages of the green peach aphid (Myzus persicae) are sprayed with an active compound preparation of the desired concentration.
After the desired period of time, the efficacy in % is determined. 100% means that all the aphids have been killed; 0% means that no aphids have been killed.

[9] = system: mustard beetle Phaedon cochleariae; test: Phaedon cochleariae spray test; format: in vivo; conditions: 100 g/ha; after 7 days; Chinese cabbage leaf disks, larvae
Protocol: Phaedon Cochleariae—Spray Test
as §1, §2
Disks of Chinese cabbage leaves (Brassica pekinensis) are sprayed with an active compound formulation of the desired concentration and, after drying, populated with larvae of the mustard beetle Phaedon cochleariae).
After 7 days, the efficacy in % is determined. 100% means that all the beetle larvae have been killed; 0% means that no beetle larvae have been killed.

| Structure (SMILES) | pest or weed control at 100 g/ha [1] | pest or weed control at 0.8 ppm [2] | pest or weed control at 100 g/ha [3] | pest or weed control at 100 g/ha (Diabrotica balteata) | pest or weed control at 4 ppm [2] | further results |
| --- | --- | --- | --- | --- | --- | --- |
| CCS(=O)(=O)c1c(-c2nc3cc(C(F)(F)C(F)(F)F)nnc3n2C)ncc2cc(C3(C#N)CC3)ccc12 [Example I-10] | 100% | 90% | 100% | 100% |  |  |
| CCS(=O)(=O)c1c(-c2nc3cc(C(F)(F)F)cnc3n2C)ncc2ccccc12 [I′-47, reference compound] |  |  |  |  |  | Emax at 4 g/ha [4]: 0%; Emax at 20 g/ha [4]: 67%; Emax at 0.8 g/ha [5]: 0%; Emax at 4 g/ha [5]: 33%; Emax at 20 g/ha [5]: 67% |
| CCS(=O)(=O)c1c(-c2nc3cc(C(F)(F)C(F)(F)F)ccc3o2)ncc2cc(C3(C#N)CC3)ccc12 [Example I-3] | 100% |  |  | 100% |  |  |
| CCS(=O)(=O)c1c(-c2nc3cc(S(=O)(=O)C(F)(F)F)ccc3o2)ncc2cc(C3(C#N)CC3)ccc12 [Example I-7] | 100% |  |  | 100% |  |  |
| CCS(=O)(=O)c1c(-c2nc3cc(OC(F)(F)F)ccc3o2)ncc2cc(C3(C#N)CC3)ccc12 [Example I-8] | 100% |  |  | 100% |  |  |
| CCS(=O)(=O)c1c(-c2nc3cc(C(F)(F)F)nnc3n2C)ncc2cc(C3(C#N)CC3)ccc12 [Example I-9] | 100% | 90% | 90% | 100% |  | efficacy in % [6]: 90% |
| CCS(=O)(=O)c1c(-c2nc3cc(OC(F)(F)F)cnc3n2C)ncc2cc(C3(C#N)CC3)ccc12 [Example I-11] | 100% | 100% | 100% | 100% | 100% |  |
| CCSc1c(-c2nc3cc(C(F)(F)F)cnc3n2C)ncc2cc(C3(C#N)CC3)ccc12 [1-[4-Ethylsulfanyl-3-[3-methyl-6-(trifluoromethyl)imidazo[4,5-b]pyridin-2-yl]-7-isoquinolyl]cyclopropanecarbonitrile] |  |  |  |  |  | chromatographic logP [7]: 3.67 |
| CCSc1c(-c2nc3cc(C(F)(F)F)cnc3n2C)ncc2cc(CC#N)ccc12 [2-[4-Ethylsulfanyl-3-[3-methyl-6-(trifluoromethyl)imidazo[4,5-b]pyridin-2-yl]-7-isoquinolyl]acetonitrile] |  |  |  |  |  | chromatographic logP [7]: 3.22 |
| CCSc1c(-c2nc3cc(C(F)(F)F)cnc3n2C)ncc2cc(Br)ccc12 [7-Bromo-4-ethylsulfanyl-3-[3-methyl-6-(trifluoromethyl)imidazo[4,5-b]pyridin-2-yl]isoquinoline] |  |  |  |  |  | chromatographic logP [7]: 4.36 |
| CCS(=O)(=O)c1c(-c2nc3cc(C(F)(F)F)ccc3n2C)ncc2cc(C3(C#N)CC3)ccc12 [Example I-6] | 100% |  | 90% | 100% | 100% |  |
| CCS(=O)(=O)c1c(-c2nc3cc(C(F)(F)C(F)(F)F)ncc3n2C)ncc2cc(C3(C#N)CC3)ccc12 [Example I-13] | 100% | 100% | 100% | 100% | 100% |  |
| CCS(=O)(=O)c1c(-c2nc3cc(C(F)(F)C(F)(F)F)cnc3n2C)ncc2cc(C3(C#N)CC3)ccc12 [Example I-4] | 100% | 100% | 100% | 100% | 100% |  |
| CCS(=O)(=O)c1c(-c2nc3cc(C(F)(F)F)cnc3n2C)ncc2cc(C3(C#N)CC3)ccc12 [Example I-1, 1-[4-Ethylsulfonyl-3-[3-methyl-6-(trifluoromethy)imidazo[4,5-b]pyridin-2-yl]-7-isoquinolyl]cyclopropanecarbonitrile] | 100% | 90% | 90% |  | 100% | Emax at 4 g/ha [8]: 70%; Emax at 20 g/ha [8]: 90%; Emax at 100 g/ha [8]: 90%; Emax at 4 g/ha [4]: 100%; Emax at 20 g/ha [4]: 100%; chromatographic logP [7]: 3.02; efficacy in % [9]: 100%; Emax at 0.8 g/ha [5]: 83%; Emax at 4 g/ha [5]: 100%; Emax at 20 g/ha [5]: 100% |
| CCS(=O)(=O)c1c(-c2nc3cc(C(F)(F)F)ncc3n2C)ncc2cc(C3(C#N)CC3)ccc12 [Example I-2] | 100% | 90% | 90% | 100% | 100% |  |
| CCS(=O)(=O)c1c(-c2nc3cc(C(F)(F)F)cnc3n2C)ncc2cc(C(F)(F)F)ccc12 [I′-51, reference compound] |  |  |  |  |  | Emax at 4 g/ha [8]: 0%; Emax at 20 g/ha [8]: 0%; Emax at 100 g/ha [8]: 90% |
| CCS(=O)(=O)c1c(-c2nc3cc(C(F)(F)C(F)F)cnc3n2C)ncc2cc(C3(C#N)CC3)ccc12 [Example I-14] | 100% | 100% | 100% | 100% | 100% |  |
| CCS(=O)(=O)c1c(-c2nc3cc(OC(F)(F)F)ccc3n2C)ncc2cc(C3(C#N)CC3)ccc12 [Example I-12] | 100% | 90% | 100% | 100% | 100% |  |
| CCS(=O)(=O)c1c(-c2nc3cc(OC(F)(F)C(F)(F)F)cnc3n2C)ncc2cc(C3(C#N)CC3)ccc12 [Example I-5] | 100% |  | 90% |  | 100% |  |
